Among the test systems are Malme-3M; M14; SN12C; KM12; ACHN; DU-145; MOLT-4; MCF7; SK-MEL-2; SW-620; HCT-116; NCI-H23; COLO 205; PC-3; A498; SF-539; RXF 393; SNB-19; LOX IMVI; IGROV-1.
Test in all cases: NCI-60 cell line screen, 48 h

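The compound was tested at five concentrations on cells cultured in 96-well plates, with a 48-hour exposure period. Here, GI50 denotes the concentration required for 50% inhibition of growth.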 Active and inactive are the calls of the source. No stated cut-off is given here; in the data, active = GI50 up to about 1.1 µM and inactive = higher. Bounds are passed on as bounds.

As for `CCOC(=O)CCC(NC(=O)Cc1ccc(Nc2nc3ccccc3nc2-c2cccs2)cc1)C(=O)OCC` (stereo not drawn), the GI50 in the experiment with Malme-3M was 49.8 µM (inactive); in the experiment with M14 it was > 100 µM (inactive); in the experiment with SN12C it was > 100 µM (inactive); with KM12, > 100 µM (inactive); with ACHN, > 100 µM (inactive); in the experiment on DU-145, 44.2 µM (inactive). Moreover, the GI50 in the experiment with MOLT-4 is > 100 µM (inactive); in the experiment with MCF7, 41.1 µM (inactive); in the experiment with SK-MEL-2 it was 54.3 µM (inactive); in the experiment on SW-620 it was > 100 µM (inactive); in the experiment on HCT-116, > 100 µM (inactive); in the experiment with NCI-H23, 30.1 µM (inactive). The GI50 with COLO 205 was > 100 µM (inactive); in the experiment on PC-3 it was 45.7 µM (inactive); with A498 it was 69.7 µM (inactive); in the experiment with SF-539, 24.9 µM (inactive); with RXF 393, 12.9 µM (inactive); in the experiment with SNB-19 it was 24.7 µM (inactive).
With `CC1(C)CC2=NO[Se]3=C2C(=NO3)C1`, the GI50 with M14 was 1.99 µM (inactive); in the experiment with SN12C, 4.43 µM (inactive); with LOX IMVI, 1.6 µM (inactive); in the experiment with KM12, 2.64 µM (inactive); in the experiment on IGROV-1 it was 2.72 µM (inactive); with ACHN, 1.72 µM (inactive). In addition, the GI50 in the experiment on DU-145 was 3.83 µM (inactive); in the experiment with MOLT-4, 3.48 µM (inactive); in the experiment with MCF7, 3.27 µM (inactive); in the experiment with SK-MEL-2 it was 5.78 µM (inactive); with SW-620, 3.16 µM (inactive); with HCT-116 it was 0.485 µM (active). Further, the GI50 was 2.15 µM (inactive) with NCI-H23; 2.07 µM (inactive) in the experiment on COLO 205; 0.394 µM (active) in the experiment on PC-3; 4.3 µM (inactive) in the experiment on A498; 2.15 µM (inactive) with SF-539; 3.15 µM (inactive) with RXF 393. Besides, the GI50 with SNB-19 is 4.08 µM (inactive).
In the case of `CC(=O)Nc1ccc2nc(N)n[n+]([O-])c2c1`, the GI50 with M14, with SN12C, in the experiment on LOX IMVI, in the experiment on KM12, in the experiment on IGROV-1 and in the experiment with ACHN was > 100 µM (inactive) each time. Further, the GI50 in the experiment on DU-145, in the experiment on MOLT-4, in the experiment with MCF7, with SK-MEL-2, in the experiment on SW-620 and in the experiment on HCT-116 was > 100 µM (inactive) each time. Further, the GI50 in the experiment with NCI-H23, with COLO 205, in the experiment on PC-3, with A498, in the experiment with SF-539 and in the experiment on SNB-19 was > 100 µM (inactive) in each case.
For the molecule `O=C(Nn1c(-c2ccccc2)nc2ccccc2c1=O)c1cccc([N+](=O)[O-])c1`, the GI50 in the experiment on M14 was > 100 µM (inactive); in the experiment with SN12C it was > 100 µM (inactive); in the experiment on LOX IMVI, > 100 µM (inactive); with KM12 it was > 100 µM (inactive); with IGROV-1 it was > 100 µM (inactive); in the experiment with ACHN, 86.7 µM (inactive). Further, the GI50 was > 100 µM (inactive) in the experiment on DU-145; 39.9 µM (inactive) in the experiment with MOLT-4; 38 µM (inactive) in the experiment with MCF7; > 100 µM (inactive) in the experiment with SW-620; > 100 µM (inactive) with HCT-116; 57.1 µM (inactive) in the experiment on NCI-H23. Further, the GI50 in the experiment with COLO 205 is 54.3 µM (inactive); with PC-3, 43.1 µM (inactive); with A498, 48.9 µM (inactive); in the experiment on SF-539 it was > 100 µM (inactive); with RXF 393, > 100 µM (inactive); in the experiment on SNB-19 it was 61.1 µM (inactive).
In the case of `CN1C(NN)=NS(=O)(=O)c2ccccc21`, the GI50 in the experiment on M14, with SN12C, with LOX IMVI, with KM12, in the experiment with IGROV-1 and in the experiment on ACHN was > 100 µM (inactive) throughout. The GI50 with DU-145, in the experiment on MOLT-4, with MCF7, with SK-MEL-2, in the experiment on SW-620 and in the experiment on HCT-116 was > 100 µM (inactive) throughout. Besides, the GI50 in the experiment on NCI-H23, in the experiment with COLO 205, in the experiment with PC-3, in the experiment on A498, with SF-539 and with RXF 393 was > 100 µM (inactive) each time. Moreover, the GI50 with SNB-19 is > 100 µM (inactive).
Consider `CCN(CC)/C(Cl)=C(Cl)\C(=C1\Nc2ccc(OC)cc21)[N+](=O)[O-]`, for which the GI50 with Malme-3M is > 100 µM (inactive); in the experiment on M14, > 100 µM (inactive); with SN12C it was > 100 µM (inactive); with LOX IMVI it was 38.7 µM (inactive); in the experiment with KM12 it was 69.5 µM (inactive); with IGROV-1, 88.1 µM (inactive). Also, the GI50 was 98.2 µM (inactive) in the experiment with ACHN; 37.8 µM (inactive) with DU-145; 23.1 µM (inactive) with MOLT-4; 54.8 µM (inactive) in the experiment on MCF7; 43 µM (inactive) in the experiment with SW-620; 44.6 µM (inactive) with HCT-116. Further, the GI50 in the experiment with NCI-H23 is 56.6 µM (inactive); in the experiment on COLO 205, 43.4 µM (inactive); with PC-3, 31.6 µM (inactive); with A498, > 100 µM (inactive); in the experiment with RXF 393, 15.7 µM (inactive); in the experiment with SNB-19, 61 µM (inactive).
For the molecule `CN(C)S(=O)(=O)Nc1nnc(S(N)(=O)=O)s1`, the GI50 in the experiment with Malme-3M, in the experiment with M14, in the experiment with KM12, in the experiment on IGROV-1, in the experiment on ACHN and in the experiment on DU-145 was > 100 µM (inactive) throughout. Moreover, the GI50 with MOLT-4, in the experiment on MCF7, with SK-MEL-2, in the experiment on SW-620, in the experiment with HCT-116 and in the experiment on NCI-H23 was > 100 µM (inactive) throughout. The GI50 in the experiment with COLO 205, with PC-3, in the experiment with A498, in the experiment with SF-539, in the experiment on RXF 393 and in the experiment with SNB-19 was > 100 µM (inactive) each time.
For `CCCCOc1ccc(/C=C/C2=[N+](CCO)CCO2)cc1`, the GI50 in the experiment on Malme-3M is 80 µM (inactive); in the experiment on M14, 76.7 µM (inactive); with SN12C, 97.3 µM (inactive); in the experiment on KM12 it was 34 µM (inactive); in the experiment on IGROV-1 it was 85.5 µM (inactive); with ACHN, 91.6 µM (inactive). Besides, the GI50 in the experiment on DU-145 is > 100 µM (inactive); in the experiment on MOLT-4 it was 53 µM (inactive); in the experiment with MCF7, 29.4 µM (inactive); in the experiment with SK-MEL-2, > 100 µM (inactive); with SW-620 it was 33.6 µM (inactive); in the experiment on HCT-116 it was 39.8 µM (inactive). Besides, the GI50 with NCI-H23 is > 100 µM (inactive); in the experiment on COLO 205, 24.7 µM (inactive); in the experiment with PC-3, 68.4 µM (inactive); in the experiment on A498, > 100 µM (inactive); with SF-539 it was 21.7 µM (inactive); with RXF 393, 17.9 µM (inactive). The GI50 with SNB-19 is > 100 µM (inactive).
Turning to `C#CCOC(=O)C(N)C(C)O` (stereo not drawn), the GI50 with Malme-3M, with M14, with SN12C, in the experiment on LOX IMVI, in the experiment with KM12 and in the experiment with IGROV-1 was > 100 µM (inactive) in each case. The GI50 with ACHN, in the experiment with DU-145, in the experiment with MOLT-4, in the experiment with MCF7, in the experiment on SK-MEL-2 and in the experiment with SW-620 was > 100 µM (inactive) each time. The GI50 in the experiment on HCT-116, with NCI-H23, with COLO 205, in the experiment on PC-3, in the experiment with A498 and in the experiment with RXF 393 was > 100 µM (inactive) in each case.
With `CC(=O)OC(Cn1cncn1)(Cn1cncn1)c1ccc(Cl)cc1Cl`, the GI50 in the experiment with M14, in the experiment on LOX IMVI, in the experiment on KM12, in the experiment on IGROV-1, with DU-145 and with MOLT-4 was > 100 µM (inactive) each time. Further, the GI50 with MCF7, in the experiment on SK-MEL-2, in the experiment on SW-620, in the experiment with COLO 205, with PC-3 and in the experiment with A498 was > 100 µM (inactive) in each case. In addition, the GI50 with SF-539, with RXF 393 and with SNB-19 was > 100 µM (inactive) each time.
As to `CC(=O)O[C@H]1C(=O)[C@@]2(C)[C@H]([C@H](OC(=O)c3ccccc3)[C@]3(O)C[C@H](OC(=O)[C@H](O)[C@@H](NC(=O)c4ccco4)c4ccccc4)C(C)=C1C3(C)C)[C@]1(OC(C)=O)CO[C@@H]1C[C@@H]2O`, the GI50 in the experiment with M14 is < 0.00125 µM (active); in the experiment on LOX IMVI it was < 0.00125 µM (active); in the experiment on KM12, < 0.00125 µM (active); in the experiment on IGROV-1, 0.0019 µM (active); in the experiment with ACHN it was 0.043 µM (active); in the experiment on DU-145, 0.00205 µM (active). Besides, the GI50 in the experiment with MOLT-4 is 0.00286 µM (active); in the experiment with MCF7 it was < 0.00125 µM (active); with SK-MEL-2, < 0.00125 µM (active); with SW-620, < 0.00125 µM (active); with HCT-116, < 0.00125 µM (active); with NCI-H23, 0.00136 µM (active). For the same molecule, the GI50 in the experiment with COLO 205 was < 0.00125 µM (active); with PC-3 it was < 0.00125 µM (active); with A498 it was 0.0141 µM (active); with SF-539, < 0.00125 µM (active); with RXF 393, 0.00407 µM (active); in the experiment on SNB-19, 0.00134 µM (active).

Values taken from ChEMBL document CHEMBL1201862, “PubChem BioAssay data set” (2004).
